Laboratory results reported in publication PMC5574958, “Radiosynthesis and Preclinical Evaluation of [^18F]F-DPA, A Novel Pyrazolo[1,5a]pyrimidine Acetamide TSPO Radioligand, in Healthy Sprague Dawley Rats” (Molecular Imaging and Biology, 2017).

Experiments:
[1] = In vivo PET/CT imaging, time-activity curves; parameters: species or system Sprague Dawley rats
Protocol: Rats were anesthetized with isoflurane/oxygen gas and injected intravenously with [^18F]F-DPA (31.4 ± 2.1 MBq, n = 4 SA at the time of injection = 4.1 ± 0.4 GBq/μmol) for scanning by an Inveon multimodality PET/CT tomograph (Siemens Medical Solutions, Knoxville, TN, USA). In order to prevent eye dryness, a few drops of Oftagel (25 mg/g; Santen, Tampere, Finland) were applied to the eyes of the animals. The scanner has a 12.7 cm axial field of view (FOV) and 10 cm transaxial FOV generating images from 159 transaxial slices. The spatial resolution of the scanner is 1.4 mm according to the manufacturer’s specifications. The animals were scanned for 10 min with computed tomography (CT) for attenuation correction and anatomical reference, and immediately after that, the radiotracer was injected for a 60-min dynamic PET scan. Frames were taken at the following intervals: 30 × 10, 15 × 60, 4 × 300, and 2 × 600 s. Volume of interests (VOIs) were drawn over the whole brain, heart, lung, liver, and kidneys using Inveon Research Workplace Image Analysis software (Siemens Medical Solutions). From the VOIs, time–activity curves (TACs) were obtained and the uptake of [^18F]F-DPA was expressed as percentage of injected dose per milliliter of tissue (%inj. dose/ml).

Ex vivo biodistribution = assay type: in vivo, Sprague Dawley rats; conditions: for Uptake of fluorine-18-radioactivity, Harderian gland / Uptake of fluorine-18-radioactivity, Brain / Uptake of fluorine-18-radioactivity, Brown fat / Uptake of fluorine-18-radioactivity, Eye x2 / Uptake of fluorine-18-radioactivity, Injection site (tail) / Uptake of fluorine-18-radioactivity, Large int. Wall + contents / Uptake of fluorine-18-radioactivity, Liver / Uptake of fluorine-18-radioactivity, Lung / Uptake of fluorine-18-radioactivity, Muscle / Uptake of fluorine-18-radioactivity, Salivary x2 / Uptake of fluorine-18-radioactivity, Small int. wall + contents / Uptake of fluorine-18-radioactivity, Stomach wall + contents / Uptake of fluorine-18-radioactivity, Testis: mean, n = 3
Protocol: After sacrifice (5, 15, 30, 60, and 90 min after injection, n = 3, for every time point and radiotracer), the blood was collected into Li-heparin tubes and transcardial perfusion with saline was conducted rapidly in order to eliminate the blood from the whole body. Following this, the organs of the animals were collected, individually weighed, and the radioactivity was measured using a gamma counter (Wizard^2 3 × 3″, PerkinElmer, Turku, Finland). The decay-corrected radioactivity is reported as percentage of injected dose per gram (%ID/g).

[2] = RadioTLC analyses of radiometabolites in plasma and brain homogenates; assay type: in vivo, Sprague Dawley rats; conditions: for Unchanged radiotracer, share of radioactivity in the brain: brain homogenate
Protocol: The blood samples were taken into Li-heparin tubes and centrifuged (3000×g, 10 min). The plasma was transferred to an Eppendorf tube and the plasma proteins were precipitated by addition of 1.5 parts of MeOH by volume. Following a further centrifugation (12,000×g, 4 min), 20 μl of the supernatant was spotted onto an aluminum-backed silica gel 60/Kieselguhr F254 TLC plate (EMD Millipore 1.05567.0001, Merck Millipore, Darmstadt, Germany).
Brain samples from the cortex were homogenized with approximately 200 μl of 1:1 v/v of MeOH and water; the mixture was transferred to an Eppendorf tube and centrifuged (12,000×g, 4 min). An aliquot (20 μl) of the supernatant was spotted onto the TLC plate.
The TLC plates were developed with a mixture of dichloromethane and methanol (9:1, v/v) for a distance of 6 cm. Following this, the plates were exposed onto an imaging plate (Fuji BAS Imaging Plate TR2025, Fuji Photo Film Co., Ltd., Tokyo, Japan) for approximately two half-lives of fluorine-18 (3.5 to 4 h). After the exposure, the imaging plates were scanned using a BAS-5000 reader (Fuji, Japan) with a resolution of 50 μm and the saved images were analyzed using TINA software (version 2.10 g, Raytest, Isotopenmessgeräte, GmbH, Straubenhardt, Germany).

TSPO = conditions: read-out: K i (TSPO affinity); cited from earlier work
CBR = conditions: read-out: K i CBR (selectivity); cited from earlier work

Excretion pathway ([1]; in vivo TACs, high F-18 radioactivity in the intestine): excreted via the hepatobiliary pathway
Time after injection at which concentration equilibrium is reached in the brain ([1]; whole brain TAC, i.v. injection, 60-min dynamic PET): 20 to 30 min
Uptake of fluorine-18-radioactivity, Harderian gland (Ex vivo biodistribution; 5 min after injection): 0.54 %ID/g tissue
Uptake of fluorine-18-radioactivity, Harderian gland (Ex vivo biodistribution; 15 min after injection): 0.59 %ID/g tissue
Uptake of fluorine-18-radioactivity, Harderian gland (Ex vivo biodistribution; 30 min after injection): 0.62 %ID/g tissue
Uptake of fluorine-18-radioactivity, Harderian gland (Ex vivo biodistribution; 60 min after injection): 0.83 %ID/g tissue
Uptake of fluorine-18-radioactivity, Harderian gland (Ex vivo biodistribution; 90 min after injection): 0.55 %ID/g tissue
Uptake of fluorine-18-radioactivity, Brain (Ex vivo biodistribution; 5 min after injection): 0.23 %ID/g tissue
Uptake of fluorine-18-radioactivity, Brain (Ex vivo biodistribution; 15 min after injection): 0.17 %ID/g tissue
Uptake of fluorine-18-radioactivity, Brain (Ex vivo biodistribution; 30 min after injection): 0.09 %ID/g tissue
Uptake of fluorine-18-radioactivity, Brain (Ex vivo biodistribution; 60 min after injection): 0.07 %ID/g tissue
Uptake of fluorine-18-radioactivity, Brain (Ex vivo biodistribution; 90 min after injection): 0.06 %ID/g tissue
Uptake of fluorine-18-radioactivity, Brown fat (Ex vivo biodistribution; 5 min after injection): 0.28 %ID/g tissue
Uptake of fluorine-18-radioactivity, Brown fat (Ex vivo biodistribution; 15 min after injection): 0.43 %ID/g tissue
Uptake of fluorine-18-radioactivity, Brown fat (Ex vivo biodistribution; 30 min after injection): 1.11 %ID/g tissue
Uptake of fluorine-18-radioactivity, Brown fat (Ex vivo biodistribution; 60 min after injection): 0.44 %ID/g tissue
Uptake of fluorine-18-radioactivity, Brown fat (Ex vivo biodistribution; 90 min after injection): 0.95 %ID/g tissue
Blood radioactivity compared with [^18F]DPA-714 (Ex vivo biodistribution; ex vivo %ID/g, two-tailed unpaired t test, P ≤ 0.006): significantly lower
Uptake of fluorine-18-radioactivity, Eye x2 (Ex vivo biodistribution; eye x2, 5 min after injection): 0.32 %ID/g tissue
Uptake of fluorine-18-radioactivity, Eye x2 (Ex vivo biodistribution; eye x2, 15 min after injection): 0.29 %ID/g tissue
Uptake of fluorine-18-radioactivity, Eye x2 (Ex vivo biodistribution; eye x2, 30 min after injection): 0.21 %ID/g tissue
Uptake of fluorine-18-radioactivity, Eye x2 (Ex vivo biodistribution; eye x2, 60 min after injection): 0.16 %ID/g tissue
Uptake of fluorine-18-radioactivity, Eye x2 (Ex vivo biodistribution; eye x2, 90 min after injection): 0.16 %ID/g tissue
Uptake of fluorine-18-radioactivity, Injection site (tail) (Ex vivo biodistribution; 5 min after injection): 0.36 %ID/g tissue
Uptake of fluorine-18-radioactivity, Injection site (tail) (Ex vivo biodistribution; 15 min after injection): 0.38 %ID/g tissue
Uptake of fluorine-18-radioactivity, Injection site (tail) (Ex vivo biodistribution; 30 min after injection): 0.28 %ID/g tissue
Uptake of fluorine-18-radioactivity, Injection site (tail) (Ex vivo biodistribution; 60 min after injection): 0.42 %ID/g tissue
Uptake of fluorine-18-radioactivity, Injection site (tail) (Ex vivo biodistribution; 90 min after injection): 0.38 %ID/g tissue
Uptake of fluorine-18-radioactivity, Large int. Wall + contents (Ex vivo biodistribution; 5 min after injection): 0.30 %ID/g tissue
Uptake of fluorine-18-radioactivity, Large int. Wall + contents (Ex vivo biodistribution; 15 min after injection): 0.31 %ID/g tissue
Uptake of fluorine-18-radioactivity, Large int. Wall + contents (Ex vivo biodistribution; 30 min after injection): 0.33 %ID/g tissue
Uptake of fluorine-18-radioactivity, Large int. Wall + contents (Ex vivo biodistribution; 60 min after injection): 0.29 %ID/g tissue
Uptake of fluorine-18-radioactivity, Large int. Wall + contents (Ex vivo biodistribution; 90 min after injection): 0.28 %ID/g tissue
Uptake of fluorine-18-radioactivity, Liver (Ex vivo biodistribution; 5 min after injection): 0.77 %ID/g tissue
Uptake of fluorine-18-radioactivity, Liver (Ex vivo biodistribution; 15 min after injection): 0.82 %ID/g tissue
Uptake of fluorine-18-radioactivity, Liver (Ex vivo biodistribution; 30 min after injection): 0.49 %ID/g tissue
Uptake of fluorine-18-radioactivity, Liver (Ex vivo biodistribution; 60 min after injection): 0.43 %ID/g tissue
Uptake of fluorine-18-radioactivity, Liver (Ex vivo biodistribution; 90 min after injection): 0.31 %ID/g tissue
Uptake of fluorine-18-radioactivity, Lung (Ex vivo biodistribution; 5 min after injection): 5.94 %ID/g tissue
Uptake of fluorine-18-radioactivity, Lung (Ex vivo biodistribution; 15 min after injection): 4.04 %ID/g tissue
Uptake of fluorine-18-radioactivity, Lung (Ex vivo biodistribution; 30 min after injection): 2.27 %ID/g tissue
Uptake of fluorine-18-radioactivity, Lung (Ex vivo biodistribution; 60 min after injection): 1.79 %ID/g tissue
Uptake of fluorine-18-radioactivity, Lung (Ex vivo biodistribution; 90 min after injection): 1.47 %ID/g tissue
Uptake of fluorine-18-radioactivity, Muscle (Ex vivo biodistribution; 5 min after injection): 0.07 %ID/g tissue
Uptake of fluorine-18-radioactivity, Muscle (Ex vivo biodistribution; 15 min after injection): 0.07 %ID/g tissue
Uptake of fluorine-18-radioactivity, Muscle (Ex vivo biodistribution; 30 min after injection): 0.09 %ID/g tissue
Uptake of fluorine-18-radioactivity, Muscle (Ex vivo biodistribution; 60 min after injection): 0.11 %ID/g tissue
Uptake of fluorine-18-radioactivity, Muscle (Ex vivo biodistribution; 90 min after injection): 0.12 %ID/g tissue
Uptake of fluorine-18-radioactivity, Salivary x2 (Ex vivo biodistribution; salivary x2, 5 min after injection): 0.70 %ID/g tissue
Uptake of fluorine-18-radioactivity, Salivary x2 (Ex vivo biodistribution; salivary x2, 15 min after injection): 0.82 %ID/g tissue
Uptake of fluorine-18-radioactivity, Salivary x2 (Ex vivo biodistribution; salivary x2, 30 min after injection): 1.56 %ID/g tissue
Uptake of fluorine-18-radioactivity, Salivary x2 (Ex vivo biodistribution; salivary x2, 60 min after injection): 1.21 %ID/g tissue
Uptake of fluorine-18-radioactivity, Salivary x2 (Ex vivo biodistribution; salivary x2, 90 min after injection): 1.00 %ID/g tissue
Uptake of fluorine-18-radioactivity, Small int. wall + contents (Ex vivo biodistribution; 5 min after injection): 1.19 %ID/g tissue
Uptake of fluorine-18-radioactivity, Small int. wall + contents (Ex vivo biodistribution; 15 min after injection): 1.47 %ID/g tissue
Uptake of fluorine-18-radioactivity, Small int. wall + contents (Ex vivo biodistribution; 30 min after injection): 2.00 %ID/g tissue
Uptake of fluorine-18-radioactivity, Small int. wall + contents (Ex vivo biodistribution; 60 min after injection): 1.95 %ID/g tissue
Uptake of fluorine-18-radioactivity, Small int. wall + contents (Ex vivo biodistribution; 90 min after injection): 2.59 %ID/g tissue
Uptake of fluorine-18-radioactivity, Stomach wall + contents (Ex vivo biodistribution; 5 min after injection): 0.50 %ID/g tissue
Uptake of fluorine-18-radioactivity, Stomach wall + contents (Ex vivo biodistribution; 15 min after injection): 0.54 %ID/g tissue
Uptake of fluorine-18-radioactivity, Stomach wall + contents (Ex vivo biodistribution; 30 min after injection): 0.93 %ID/g tissue
Uptake of fluorine-18-radioactivity, Stomach wall + contents (Ex vivo biodistribution; 60 min after injection): 1.07 %ID/g tissue
Uptake of fluorine-18-radioactivity, Stomach wall + contents (Ex vivo biodistribution; 90 min after injection): 0.74 %ID/g tissue
Uptake of fluorine-18-radioactivity, Testis (Ex vivo biodistribution; 5 min after injection): 0.21 %ID/g tissue
Uptake of fluorine-18-radioactivity, Testis (Ex vivo biodistribution; 15 min after injection): 0.28 %ID/g tissue
Uptake of fluorine-18-radioactivity, Testis (Ex vivo biodistribution; 30 min after injection): 0.23 %ID/g tissue
Uptake of fluorine-18-radioactivity, Testis (Ex vivo biodistribution; 60 min after injection): 0.26 %ID/g tissue
Uptake of fluorine-18-radioactivity, Testis (Ex vivo biodistribution; 90 min after injection): 0.27 %ID/g tissue
Unchanged radiotracer, share of radioactivity in the brain ([2]; 20–30 min after injection): greater than 95%
Unchanged radiotracer, share of radioactivity in the brain ([2]; 90 min after injection, n = 3): 93.5 ± 2.8%
Unchanged radiotracer, share of radioactivity in the plasma ([2]; plasma, 90 min after injection, n = 3): 28.3 ± 6.4%
Compound: CCN(CC)C(=O)Cc1c(-c2ccc([18F])cc2)nn2c(C)cc(C)nc12 [[^18F]F-DPA]
Accumulation of radioactivity in the bone (defluorination in vivo) (Ex vivo biodistribution; after the initial uptake at 5 min, up to 90 min): no significant accumulation of radioactivity in the bone
Ki (TSPO): 1.7 nM
Ki (CBR): > 1000 nM
